Results on 23 compounds are retold here after US20050148634A1, “1-N-Aminobenzimidazole derivatives” (ZERIA PHARMACEUTICAL CO., LTD, priority 2002, published 2005).

One series deals with T1, human CYP2C19 (Homo sapiens, UniProt P33261).
T1 construct: purchased Sumitomo Chemical Co., Ltd
As to the kind of experiment: Test 3 human CYP2C19 activity inhibition test (S-(+)-mephenyloin to 4'-hydroxymephenyloin). The class given is in vitro ADME. The settings on record: test compound 10 μM, microsomes from human CYP2C19 expression system, formed 4'-hydroxymephenyloin compared with control. The protocol:
Test 3 (Human CPY2C19 Activity Inhibition Test)
CYP2C19 specifically induces the metabolic reaction of from S-(+)-mephenyloin into 4′-hydroxymephenyloin. Using the CYP2C19 expression system, the inhibitory effect of each test substance was investigated based on the amount (concentration) of formed 4′-hydroxymephenylion as an index of CYP2C19 activity.
a) Metabolic Activity Test
As a reaction mixture, a 125 μmol/L solution of S-(+)-mephenyloin in methanol (50 μL) and a 25 μmol/L solution of each test substance in methanol (0, 10, 100 or 200 μL) were added to 10-mL test tube made of glass, and the solvent was distilled off under a nitrogen gas stream (40° C.).
After incubated at 37° C. for 10 minutes, a 12% aqueous solution of perchloric acid (50 μL) was added to terminate the reaction.
Subsequent to the termination of the reaction, 10 μg/mL methyl p-hydroxybenzoate (50 μL) as an internal standard (I.S.) and diethyl ether (2 mL) were added. The resulting mixture was shaken for 10 minutes, and then centrifuged (3,000 rpm, 10 minutes). The organic layer was separately collected, and under a nitrogen gas stream (40° C.), the solvent was distilled off. The residue was dissolved in a mobile phase (200 μL), and an analysis was conducted by high performance liquid chromatography (HPLC).
Using a solution of 4′-hydroxymephenyloin in lieu of the S-(+)-mephenyloin solution, a calibration line was prepared following the above-described reaction method. Quantitation was conducted based on a peak area ratio of 4′-hydroxymephenyloin to the I.S. Comparing the formed amount of 4′-hydroxymephenyloin as a control with that of 4′-hydroxymephenyloin at the time of the existence of the test compound, the comparison result was used as an index of activity.
HPLC was conducted under the following HPLC conditions A or HPLC conditions B. […]

Series [1] deals with histamine-stimulated gastric acid secretion. Nature of the series: Test 2 gastric acid secretion inhibitory effect, acute fistula method. Format: in vivo, Sprague-Dawley (SD) rats. Particulars: male SD rats, administered into the duodenum, total gastric acid secreted on 3rd-5th hours, Probit method; for ED50: Rattus norvegicus. As for the experimental part: Test 2 (Gastric Acid Secretion Inhibitory Effect)
(1) As laboratory animals, seven-week old male Sprague-Dawley (SD) rats were purchased from CHARLES RIVER JAPAN, INC. Subsequent to preliminary rearing for 5 days or longer, they were used in an experiment.
Each test medicine was suspended or dissolved in a 0.5% carboxymethylcellulose sodium solution to prepare a volume of 2.5 mL/kg.
(2) Measurement of Gastric Acid Secretion
Using rats fasted for 18 hours, histamine-stimulated gastric acid secretion in an acute fistula method following the method reported by Hiramatsu et al. (Dig. Dis. Sci., 39, 689-697 (1994)) was measured. Described specifically, each rat was lightly anesthetized with diethyl ether. After that, a winged tube needle with 3.8% citric acid solution filled therein was caused to dwell in the caudal vein. Celiotomy was performed, and the pyloric part of the stomach was ligated. A small hole was then formed in the duodenum, and a feeding tube with physiological saline filled therein was caused to dwell there. After the interior of the stomach was washed with physiological saline, a polyethylene-made fistula tube (inner diameter: 4 mm) was fitted to the proventriculus part and an incised part of the proventriculus was ligated to hold the fistula tube in place. The stomach and duodenum were returned into the abdominal cavity. Celiotomy was performed with the fistula tube and feeding tube being left extending outside, and the rat was placed in a Ballman Cage Type II. Histamine was continuously injected through the winged needle allowed to dwell in the caudal vein (8 mg/kg/h, 1.38 mL/h). Fifteen minutes later, the gastric juice was sampled, and after that, the gastric juice was sampled at intervals of 1 hour. After the amount of each gastric juice sample was recorded, it was titrated with 0.1 mol/L NaOH to a final point of pH 7.0. From the volume required for the titration, the acidity was calculated. The quantity of the secreted gastric acid was determined from the product of the amount of the gastric juice and the acidity. Incidentally, the rats were divided into groups such that the total amount of the first gastric juice samples became equal in each group. Each test medicine was administered in a volume of 2.5 mL/kg into the duodenum through the feeding tube fitted beforehand in the duodenum. To a control group, 0.5% Na—CMC solution was administered.
(3) Analysis of the Results
From the results so obtained, data were presented in terms of average ±S.D. The sum of quantities of gastric acid secreted on the 3rd, 4th and 5th hours after the first sampling was recorded as a total quantity of secreted gastric acid. The percent inhibition in each group was calculated from the total quantity of secreted gastric acid in the control group and the total quantity of secreted gastric acid in the group. From the percent inhibition in each group, the 50% effective dose (ED50) was next calculated by the Probit method.

T1 sequence (P33261 whole entry): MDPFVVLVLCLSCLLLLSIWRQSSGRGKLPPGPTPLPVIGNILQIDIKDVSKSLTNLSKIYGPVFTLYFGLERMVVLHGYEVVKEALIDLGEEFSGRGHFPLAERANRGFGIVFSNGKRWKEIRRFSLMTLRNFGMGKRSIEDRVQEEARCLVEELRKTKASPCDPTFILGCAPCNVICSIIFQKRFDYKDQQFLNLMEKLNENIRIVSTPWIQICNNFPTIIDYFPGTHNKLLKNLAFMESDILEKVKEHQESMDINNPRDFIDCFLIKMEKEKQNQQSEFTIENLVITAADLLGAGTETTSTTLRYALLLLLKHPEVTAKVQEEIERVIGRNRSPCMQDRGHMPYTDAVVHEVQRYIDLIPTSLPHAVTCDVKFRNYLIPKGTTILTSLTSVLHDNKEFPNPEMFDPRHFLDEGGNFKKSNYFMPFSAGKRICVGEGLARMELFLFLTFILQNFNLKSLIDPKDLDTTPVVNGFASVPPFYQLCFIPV

For the compound `Cc1c(OCC(F)(F)F)ccnc1C[S+]([O-])c1nc2ccccc2n1NCC(C)O` (mixture of isomers) [Example 55], at human CYP2C19, the “CYP2C19 activity inhibition (%)” value amounted to 63.8%. In addition, in series [1], the “Gastric acid secretion inhibitory effect ED50” value came out at 3.6 mg/kg.

As to `COCCCOc1ccnc(C[S+]([O-])c2nc3ccccc3n2NCC(C)O)c1C` (mixture of isomers) [Example 63], on human CYP2C19, the “CYP2C19 activity inhibition (%)” value turned out to be 72.1%.

`COCCCOc1ccnc(C[S+]([O-])c2nc3ccccc3n2N)c1C` (racemic) [Example 21]: the “CYP2C19 activity inhibition (%)” value on human CYP2C19 is 78.6%.

Take `Cc1c(OCCOCC(F)(F)F)ccnc1C[S+]([O-])c1nc2ccccc2n1N` (racemic) [Example 23]: the “CYP2C19 activity inhibition (%)” value on human CYP2C19 came out at 75.6%.

Turning to `COc1c(OCCOCC(F)(F)F)ccnc1C[S+]([O-])c1nc2ccccc2n1N` (racemic) [Example 24], the “CYP2C19 activity inhibition (%)” value at human CYP2C19 stood at 81.9%.

Consider `Cc1c(OCCCC(F)(F)F)ccnc1C[S+]([O-])c1nc2ccccc2n1N` (racemic) [Example 25], for which the “Gastric acid secretion inhibitory effect ED50” value in series [1] was 1.1 mg/kg.

Take `COc1c(OCCCC(F)(F)F)ccnc1C[S+]([O-])c1nc2ccccc2n1N` (racemic) [Example 26]: the “CYP2C19 activity inhibition (%)” value on human CYP2C19 stood at 73.2%. Besides, the “Gastric acid secretion inhibitory effect ED50” value in series [1] is listed as 2.6 mg/kg.

Consider `Cc1c(OCC(F)(F)F)ccnc1C[S+]([O-])c1nc2ccccc2n1NCCCO` (racemic) [Example 36], for which the “CYP2C19 activity inhibition (%)” value at human CYP2C19 (listed as Racemic mixture of Example 36, 10 µM) amounted to 61.7%.

As for `Cc1c(OCC(F)(F)F)ccnc1C[S+]([O-])c1nc2ccccc2n1NCCN(C)C` (racemic) [Example 48], on human CYP2C19, the “CYP2C19 activity inhibition (%)” value came to 72.3%.

Consider `COCCCOc1ccnc(C[S+]([O-])c2nc3ccccc3n2NCCCO)c1C` (racemic) [Example 57], for which the “CYP2C19 activity inhibition (%)” value at human CYP2C19 (listed as Racemic mixture of Example 57, 10 µM) turned out to be 73%.

Regarding `COCCOc1ccnc(C[S+]([O-])c2nc3ccccc3n2NCCCO)c1C` (racemic) [Example 58], the “CYP2C19 activity inhibition (%)” value at human CYP2C19 amounted to 67.3%.

On to `COc1c(OCC(F)(F)F)ccnc1C[S+]([O-])c1nc2ccccc2n1NCCCO` (racemic) [Example 59], for which, on human CYP2C19, the “CYP2C19 activity inhibition (%)” value is 61.7%.

As for `Cc1c(OCCOCC(F)(F)F)ccnc1C[S+]([O-])c1nc2ccccc2n1NCCCO` (racemic) [Example 60], the “CYP2C19 activity inhibition (%)” value on human CYP2C19 was 71.4%.

With `COc1c(OCCOCC(F)(F)F)ccnc1C[S+]([O-])c1nc2ccccc2n1NCCCO` (racemic) [Example 61], the “CYP2C19 activity inhibition (%)” value at human CYP2C19 is listed as 64.8%.

`Cc1c(OCCCOCC(F)(F)F)ccnc1C[S+]([O-])c1nc2ccccc2n1NCCCO` (racemic) [Example 62]: the “CYP2C19 activity inhibition (%)” value on human CYP2C19 amounted to 95.3%.

Turning to `Cc1c(OCC(F)(F)F)ccnc1C[S+]([O-])c1nc2ccccc2n1NCCCO` (single isomer, unassigned; (+)) [(+) Isomer of Example 36], on human CYP2C19 (10 µM), the “CYP2C19 activity inhibition (%)” value came out at 70.6%. Besides, in series [1], the “Gastric acid secretion inhibitory effect ED50” value amounted to 1.1 mg/kg.

For `COCCCOc1ccnc(C[S+]([O-])c2nc3ccccc3n2NCCCO)c1C` (single isomer, unassigned; (+)) [(+) Isomer of Example 57], the “CYP2C19 activity inhibition (%)” value on human CYP2C19 (10 µM) stood at 67.4%.

`COCCCOc1ccnc(C[S+]([O-])c2nc3ccccc3n2NCCCO)c1C` (single isomer, unassigned; (-)) [(−) Isomer of Example 57]: the “CYP2C19 activity inhibition (%)” value at human CYP2C19 (10 µM) stood at 77.6%.

Turning to `COc1ccc2nc([S@@+]([O-])Cc3ncc(C)c(OC)c3C)[nH]c2c1` [Esomeprazole, esomeprazole, reference compound], the “CYP2C19 activity inhibition (%)” value at human CYP2C19 is 35.4%. The compound further came in with an ED50 in series [1] of 2.9 mg/kg.

With `Cc1c(OCC(F)(F)F)ccnc1C[S+]([O-])c1nc2ccccc2[nH]1` (stereo not shown) [Lansoprazole, lansoprazole, reference compound], at human CYP2C19, the “CYP2C19 activity inhibition (%)” value is on record as 8.7%. Moreover, the ED50 in series [1] was found to be 1.1 mg/kg.

As for `COc1ccc2[nH]c([S+]([O-])Cc3ncc(C)c(OC)c3C)nc2c1` (stereo not shown) [Omeprazole, omeprazole, reference compound], the “CYP2C19 activity inhibition (%)” value on human CYP2C19 came to 18.4%. The compound also registered an ED50 in series [1] of 3.6 mg/kg.

Take `COc1ccnc(C[S+]([O-])c2nc3ccc(OC(F)F)cc3[nH]2)c1OC` (stereo not shown) [Pantoprazole, pantoprazole, reference compound]: the “CYP2C19 activity inhibition (%)” value at human CYP2C19 came out at 33.1%. Also, it took a dose of 0.34 mg/kg to reach the 50% effect level in series [1] (ED50).

On to `COCCCOc1ccnc(C[S+]([O-])c2nc3ccccc3[nH]2)c1C` (stereo not shown) [Rabeprazole, rabeprazole, reference compound], for which the “CYP2C19 activity inhibition (%)” value at human CYP2C19 stood at 39.8%. The compound also displayed an ED50 in series [1] of 2.5 mg/kg.
